Source: US20030224978A1, “Compounds and methods for modulating apoptosis” (McGill University, priority 1996, published 2003)
“Also recorded” adds a separate entry of the source. Like-named read-outs stand apart in the source and are kept apart here. Positions of bridges follow the written chain, without caps; N, C: chain ends. Residues, ends and D or L forms follow the SMILES beside them.

Tests used:
SKOV3 cells = experiment: Disruption of human ovarian cancer cell (SKOV3) adhesion; format: cell-based; conditions: 0.01-1 mg/mL, up to 48 hours
Description: Within one representative cell adhesion assay, the addition of a modulating agent to cells that express a cadherin results in disruption of cell adhesion. A “cadherin-expressing cell,” as used herein, may be any type of cell that expresses at least one cadherin on the cell surface at a detectable level, using standard techniques such as immunocytochemical protocols (Blaschuk and Farookhi, Dev. Biol. 136:564-567, 1989). Cadherin-expressing cells include endothelial (e.g., bovine pulmonary artery endothelial cells), epithelial and/or cancer cells (e.g., the human ovarian cancer cell line SKOV3 (ATCC #HTB-77)). For example, such cells may be plated under standard conditions that permit cell adhesion in the presence and absence of modulating agent (e.g., 500 μg/mL). Disruption of cell adhesion may be determined visually within 24 hours, by observing retraction of the cells from one another.
The human ovarian cancer cell line SKOV3 (ATCC #HTB-77) expresses N-cadherin. SKOV3 cells were cultured in a modified MEM-based media containing 10% FCS. Cells were grown in T-250 culture flasks and maintained by periodic subculturing. Cyclic peptides were tested on cells grown in individual wells of 96-well culture dishes (surface area of each well was 0.32 cm^2). Cells were harvested from flasks and seeded at a density of 50,000 cells per well in 0.1 mL media containing the cyclic peptides at concentrations of 1, 0.1, or 0.01 mg/mL, or in the absence of cyclic peptide. Media control wells were also established. Cultures were evaluated periodically by microscopic examination under both bright field and phase contrast conditions. Cultures were maintained for 48 hours.

HMVEC = format: cell-based, human; conditions: 3 h
Protocol: (§1) N-Ac-CHAVC-NH2 (SEQ ID NO:10) and the control peptide N-Ac-CHGVC-NH2 (SEQ ID NO:20) were evaluated for possible cytotoxic effects on human microvascular endothelial (HMVEC; Clonetics), human umbilical vein endothelial (HUVEC; ATCC #CRL-1730), IAFp2 (human fibroblast cell line; Institute Armand-Frapier, Montreal, Quebec), WI-38 (human fibroblast cell line; ATCC #CCL-75), MDA-MB231 (human breast cancer cell line; ATCC #HTB-26), and PC-3 (human prostate cancer cell line; ATCC #CRL-1435) cells utilizing the MTT assay (Plumb et al., Cancer Res. 49:4435-4440, 1989). Neither of the peptides was cytotoxic at concentrations up to and including 100 μM. Similarly, neither of the peptides was capable of inhibiting the proliferation of the above cell lines at concentrations up to 100 μM, as judged by ^3H-thymidine incorporation assays.

IAFp2 = format: cell-based, human; conditions: 3 h
Protocol: as §1

PC-3 [1] = format: cell-based, human; conditions: 3 h
Protocol: as §1

WI-38 = format: cell-based, human; conditions: 3 h
Protocol: as §1

in vitro [2] = format: cell-based; conditions: human
Protocol: as §1

in vitro [3] = format: cell-based; conditions: human; remark: listed apart in the source
Protocol: as §1

in vitro [4] = format: cell-based; conditions: human; remark: listed apart in the source
Protocol: as §1

in vitro [5] = format: cell-based; conditions: human; remark: listed apart in the source
Protocol: as §1

MDA-MB231 = format: cell-based; conditions: human
Protocol: as §1

PC-3 [6] = format: cell-based; conditions: human
Protocol: as §1

chick N-cadherin = biological target: T1, chick N-cadherin (Gallus gallus, UniProt P10288); experiment: N-cadherin dependent neurite outgrowth of rat cerebellar neurons on N-cadherin expressing 3T3 cells (Example 14); format: cell-based
T1 construct: expressed in transfected cells; host or cells: 3T3 fibroblasts
T1 sequence (P10288 165-912): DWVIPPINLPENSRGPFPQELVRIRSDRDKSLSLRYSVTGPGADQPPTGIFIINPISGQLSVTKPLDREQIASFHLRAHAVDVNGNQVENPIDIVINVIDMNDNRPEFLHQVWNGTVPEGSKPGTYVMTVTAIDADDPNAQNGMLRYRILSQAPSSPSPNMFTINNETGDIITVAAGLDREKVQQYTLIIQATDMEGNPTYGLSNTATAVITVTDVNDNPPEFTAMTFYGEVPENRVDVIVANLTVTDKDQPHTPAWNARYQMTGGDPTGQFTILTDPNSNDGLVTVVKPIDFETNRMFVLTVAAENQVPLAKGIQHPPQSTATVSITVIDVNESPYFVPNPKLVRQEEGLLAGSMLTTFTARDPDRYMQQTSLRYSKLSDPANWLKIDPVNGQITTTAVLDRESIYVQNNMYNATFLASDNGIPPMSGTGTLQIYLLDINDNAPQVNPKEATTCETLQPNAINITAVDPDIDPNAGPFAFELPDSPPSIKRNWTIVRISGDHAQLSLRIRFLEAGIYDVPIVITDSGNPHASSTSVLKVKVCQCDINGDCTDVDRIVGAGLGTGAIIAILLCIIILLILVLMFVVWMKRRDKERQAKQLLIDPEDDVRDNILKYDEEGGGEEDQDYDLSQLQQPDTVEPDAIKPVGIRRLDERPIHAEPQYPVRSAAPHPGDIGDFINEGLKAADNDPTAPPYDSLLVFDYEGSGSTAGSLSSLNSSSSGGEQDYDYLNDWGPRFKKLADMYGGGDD
Protocol: (§2) Cell culture and neurite outgrowth assays. Co-cultures of cerebellar neurons on monolayers of control 3T3 cells and monolayers of transfected 3T3 cells that express physiological levels of chick N-cadherin or human L1 were established as previously described (Williams et al., Neuron 13:583-594, 1994). In brief, 80,000 3T3 cells (control and transfected) were plated into individual chambers of an eight-chamber tissue culture slide coated with polylysine and fibronectin and cultured in DMEM/10% FCS. After 24 hours, when confluent monolayers had formed, the medium was removed and 3000 cerebellar neurons isolated from post-natal day 2-3 rats were plated into each well in SATO media (Doherty et al., Nature 343:464-466, 1990) supplemented with 2% FCS. All of the test peptides were added immediately before the neurons as a 2×stock prepared in SATO/2% FCS. The co-cultures were maintained for 16-18 hours, at which time they were fixed and immunostained for GAP-43 which is present only in the neurons and delineates the neuritic processes. The mean length of the longest neurite per cell was measured for 150-200 neurons sampled in replicate cultures as previously described (Williams et al., Neuron 13:583-594, 1994). […] Dose-response curves were evaluated and the EC50 values determined.
Effects of cyclic HAV peptides on N-cadherin function. The ability of N-Ac-CHAVC-NH2 (SEQ ID NO:10; compound 1) to inhibit neurite outgrowth was initially tested. This cyclic peptide has the cadherin CAR sequence (HAV) and no flanking amino acid residues. Neurons were cultured on confluent monolayers of control (untransfected) and N-cadherin expressing 3T3 cells for 16-18 hours. The cells were then fixed and the length of the longest neurite on 150-200 neurons was determined by standard assay, as described above. FIG. 24 gives the mean neurite length in a representative experiment where cerebellar neurons have been cultured over control and N-cadherin expressing cells. In the absence of peptide, the mean length of the longest neurite per cell was approximately double on the N-cadherin expressing cells, as compared to 3T3 cells. This response requires N-cadherin function in both the neuron and transfected fibroblast.

L1 = L1 (Homo sapiens, UniProt P32004); experiment: L1 response: neurite outgrowth of rat cerebellar neurons on L1 expressing 3T3 cells (Example 14); format: cell-based; parameters: expressed in transfected cells; host or cells: 3T3 cells (stably transfected); conditions: 100 μg/mL, concentrations that substantially inhibited the N-cadherin response
Chain of L1 (P32004 20-1257): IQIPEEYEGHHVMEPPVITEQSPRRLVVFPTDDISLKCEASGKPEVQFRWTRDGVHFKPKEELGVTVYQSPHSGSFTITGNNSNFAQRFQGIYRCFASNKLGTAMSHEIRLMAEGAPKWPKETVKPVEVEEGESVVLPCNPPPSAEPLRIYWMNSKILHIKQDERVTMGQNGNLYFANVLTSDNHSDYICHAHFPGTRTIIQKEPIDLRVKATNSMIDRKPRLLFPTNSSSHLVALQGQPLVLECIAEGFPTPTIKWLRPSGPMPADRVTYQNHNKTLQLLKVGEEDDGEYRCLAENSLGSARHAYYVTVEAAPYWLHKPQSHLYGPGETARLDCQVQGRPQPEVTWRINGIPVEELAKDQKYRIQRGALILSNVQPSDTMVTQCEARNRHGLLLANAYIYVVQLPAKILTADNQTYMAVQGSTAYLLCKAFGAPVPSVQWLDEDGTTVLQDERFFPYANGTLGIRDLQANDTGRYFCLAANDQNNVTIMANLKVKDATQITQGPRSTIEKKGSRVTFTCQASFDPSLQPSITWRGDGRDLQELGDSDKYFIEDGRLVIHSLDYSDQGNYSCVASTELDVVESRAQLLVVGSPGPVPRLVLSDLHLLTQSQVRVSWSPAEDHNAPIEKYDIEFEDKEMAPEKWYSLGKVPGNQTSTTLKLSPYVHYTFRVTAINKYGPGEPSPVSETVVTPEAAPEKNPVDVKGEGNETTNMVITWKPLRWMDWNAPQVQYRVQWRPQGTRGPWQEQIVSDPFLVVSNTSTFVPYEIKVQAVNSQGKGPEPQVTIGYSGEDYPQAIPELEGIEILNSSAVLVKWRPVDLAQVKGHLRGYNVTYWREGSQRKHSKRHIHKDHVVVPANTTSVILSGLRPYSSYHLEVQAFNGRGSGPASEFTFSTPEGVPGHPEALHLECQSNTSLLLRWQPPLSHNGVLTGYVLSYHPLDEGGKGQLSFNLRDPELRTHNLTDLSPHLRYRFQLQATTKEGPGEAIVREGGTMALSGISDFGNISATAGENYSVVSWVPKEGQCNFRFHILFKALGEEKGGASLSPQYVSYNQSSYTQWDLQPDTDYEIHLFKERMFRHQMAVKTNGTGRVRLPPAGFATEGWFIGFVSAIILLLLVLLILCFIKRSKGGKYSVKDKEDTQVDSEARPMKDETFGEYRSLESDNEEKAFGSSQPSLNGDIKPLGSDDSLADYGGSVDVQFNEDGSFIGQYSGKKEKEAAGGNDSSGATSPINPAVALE
Protocol: FIG. 26 is a bar graph illustrating the effects of the cyclic peptides N-Ac-CHAVDC-NH2 (SEQ ID NO:11), N-Ac-CHAVDIC-NH2 (SEQ ID NO:62) and N-Ac-[…]-NH2 (SEQ ID NO:63) on L1 function. Cerebellar neurons were cultured on monolayers of control 3T3 cells and L1 expressing 3T3 cells for 16-18 hours in control media (unshaded) or control media supplemented with peptides N-Ac-CHAVDC-NH2 (SEQ ID NO:11; diagonal rising right), N-Ac-CHAVDIC-NH2 (SEQ ID NO:62); diagonal cross hatch) or N-Ac-[…]-NH2 (SEQ ID NO:63; diagonal rising left) at a concentration of 100 μg/mL. The cultures were then fixed and neurite outgrowth determined by measuring the length of the longest neurite from a total of 150-200 neurons sampled in replicate cultures for each experimental condition. […] The results are pooled from three independent experiments, and the bars show the s.e.m.
as §2, with “The co-cultures were maintained for 16-18 hours, at which time they were fixed and immunostained for GAP-43 which is present only in the neurons and delineates the neuritic processes.” left out, “determined. […]” for “determined.”

| IC50 (HMVEC) [µM] | IC50 (IAFp2) [µM] | IC50 (PC-3 [1]) [µM] | IC50 (in vitro [2]) [µM] | IC50 (in vitro [3]) [µM] | IC50 (in vitro [4]) [µM] | IC50 (in vitro [5]) [µM] | IC50 (MDA-MB231) [µM] | IC50 (PC-3 [6]) [µM] | inhibition at 125 µg/mL (chick N-cadherin; NIH3T3, 125 μg/mL, 16-18 hours) [%] | EC50 (chick N-cadherin; from dose-response curve) [µM] | Structure (SMILES) | activity on SKOV3 cell adhesion (SKOV3 cells) | IC50 (WI-38) [µM] | inhibitory activity on N-cadherin dependent neurite outgrowth, in words (chick N-cadherin; Tables 8 and 9, 250 or 125 μg/mL) | effect on L1 response (neurite outgrowth over L1 expressing 3T3 cells) (L1) |
| --- | --- | --- | --- | --- | --- | --- | --- | --- | --- | --- | --- | --- | --- | --- | --- |
| > 100 | > 100 | > 100 | > 100 | > 100 | > 100 | > 100 | > 100 | > 100 |  |  | CC(=O)N[C@H]1CCCCNC(=O)C[C@@H](C(N)=O)NC(=O)[C@H](C(C)C)NC(=O)[C@H](C)NC(=O)[C@H](Cc2c[nH]cn2)NC1=O (Ac-KHAVD-NH2; lactam 1-5 (inferred)) | inactive | > 100 |  |  |
|  |  |  |  |  |  |  |  |  | 62 ± 3.4 | 70 | CC[C@H](C)[C@@H]1NC(=O)[C@H](CC(=O)O)NC(=O)[C@H](C(C)C)NC(=O)[C@H](C)NC(=O)[C@H](Cc2c[nH]cn2)NC(=O)[C@@H](NC(C)=O)CSSC[C@@H](C(N)=O)NC(=O)[C@H](CC(N)=O)NC1=O (Ac-CHAVDINC-NH2; disulfide 1-8) |  |  | only a slight loss in activity; also recorded: potent inhibitors | did not interfere with the ability of neurons to extend neurites over 3T3 cells expressing L1; also recorded: not inhibited |
